# Data reported in patent US10023591B2, “Heterocyclic derivatives and use thereof” (C&C RESEARCH LABORATORIES, priority 2014, dated 2018).
# Tests used:
# [1] = test system: STAT1; experiment: STAT1 reporter gene assay (luciferase), U2OS stable cell line pGL4-STAT1-TA-luc, IFN-γ stimulation; assay type: cell-based, human; conditions: Homo sapiens, IFN-γ 50 ng/mL, 8 hours, read-out: IC50 (μM) pSTAT1
# Experimental: 1-2) Experiment on the Inhibition of STAT1 Activity
# A human osteosarcoma cell line (U2OS stable cell line; pGL4-STAT1-TA-luc), which contains a stably operating STAT1 promoter, was cultured in McCoy 5′A medium (Cat No. 16600, Life Technologies) containing 10% FBS (Cat No. SH30396, Thermo Scientific) and 1000 μg/mL G418 solution (Cat No. 04 727 894 001, Roche). The reporter gene assay using U2OS stable cell line was performed in McCoy 5′A medium containing 10% FBS without G-418 solution. U2OS stable cells were plated in two (2) white 96-well plates with 25,000 cells/50 pt in each well. The cells were cultured at 37° C., under 5% CO2 for 24 hours, and then treated with the compounds listed in Examples which were diluted in various concentrations. Subsequently, IFN-γ was added to each well with a final concentration of 50 ng/mL. Upon completion of the treatment with the compounds and IFN-γ, the cells were cultured at 37° C., under 5% CO2 for 8 hours. The plates were observed under microscope and drug precipitation and particular findings were investigated and recorded.
# (§1) The luciferase assay and the cell viability assay were performed respectively with one of two plates. For the luciferase assay, the liquid media in the 96-well plate was removed, and then, 20 μL of passive cell lysis buffer was added to each well. After shaking the plate for 30 minutes, luciferase activities of each well were measured in a PHERAstar™ microplate reader (BMG LABTECH) using a luciferase assay system (Cat No. E1501, Promega). For the cell viability assay, the 96-well plate was placed at room temperature for 30 minutes, added with 20 μL/well of CellTiter-Glo solution (Cat No. G7573, Promega), and shaken for 10 minutes in order to measure cytotoxicity caused by the compounds listed in Examples with a PHERAstar™ microplate reader (BMG LABTECH). Wells without 0.1% DMSO and stimulation were used as a negative control and wells with 0.1% DMSO and stimulation were used as a positive control.
# (§2) The results of evaluation on the inhibitory effect of the compounds listed in the Examples on the dimerization of STAT3 and STAT1 obtained via the STAT3 and STAT1 reporter gene assays are shown in Table 9 below.
# [2] = test system: STAT3; experiment: STAT3 reporter gene assay (luciferase), LNCaP stable cell line pSTAT3-TA-luc, IL-6 stimulation; assay type: cell-based, human; conditions: Homo sapiens
# Experimental: 1-1) Experiment on the Inhibition of STAT3 Activity
# A human prostate cancer cell line (LNCaP stable cell line; plasmid pSTAT3-TA-luc), which contains a stably operating STAT3 promoter, was cultured in RPMI1640 medium (Cat No. 11875, Life Technologies) containing 10% fetal bovine serum (FBS) (Cat No. SH30396, Thermo Scientific) and 150 μg/mL G-418 solution (Cat No. 04 727 894 001, Roche). The reporter gene assay using LNCaP stable cell line was performed in RPMI1640 medium containing 3% DCC-FBS without G-418 solution. LNCaP stable cells were plated in two (2) white 96-well plates with 30,000 cells/50 μL in each well. The cells were cultured at 37° C., under 5% CO2 for 24 hours, and then treated with the compounds listed in Examples which were diluted in various concentrations. Subsequently, IL-6 was added to each well with a final concentration of 10 ng/mL. Upon completion of the treatment with the compounds and IL-6, the cells were cultured at 37° C., under 5% CO2 for 24 hours. The plates were observed under microscope and drug precipitation and particular findings were investigated and recorded.
# as §1, with “one of the two plates.” for “one of two plates.”, “then, 20 μL, of passive” for “then, 20 μL of passive”
# as §2
# [3] = test system: NCI-N87 stomach cancer cell line; experiment: Cell growth inhibition assay, NCI-N87 (CellTiter-Glo); assay type: cell-based; conditions: Homo sapiens; NCI-N87, 5,000 cells/well, 96 hours
# Experimental: The inhibitory effects of the compounds of the present invention against the growth of cancer cells were evaluated as shown below. The cancer cell lines including prostate cancer cell lines (LNCaP, DU-145), stomach cancer cell line (NCI-N87), and breast cancer cell lines (MDA-MB-468) were cultured under the protocol provided by each supplier. A medium supplemented with 10 ng/mL of IL-6 was used for LNCaP, a prostate cancer cell line, when treated with a drug. Each type of cells to be used in experiments was sub-cultured in a 96-well plate by counting the exact number of cells using Tali™ Image-based Cytometer (Life Technologies). In a 96-well plate, DU-145 was employed with 3,000 cells/well; NCI-N87 was employed with 5,000 cells/well; and LNCaP and MDA-MB-468 were employed with 10,000 cells/well. The cells were treated with the compounds listed in Examples which were diluted in various concentrations. Upon completion of the compounds treatment, LNCaP, DU-145, NCI-N87 cells were cultured at 37° C. under 5% CO2 for 96 hours, and MDA-MB-468 cells were cultured at 37° C. in air for 96 hours. Subsequently, the cells were observed under microscope and drug precipitation and particular findings were investigated and recorded. And then, the 96-well plate was placed at room temperature for 30 minutes, added with 20 pt/well of CellTiter-Glo solution (Cat No. G7573, Promega) and shaken for 10 minutes, followed by being subjected to the measurement using PHERAstar™ microplate reader (BMG LABTECH) according to the supplier's general luminometer protocol. Wells where only culture liquid added without cell plating were used as a negative control, whereas wells where culture liquid containing 0.1% DMSO instead of the compounds listed in Examples were used as a positive control.
SMILES,IC50 [1] [µM],IC50 [2] [µM],IC50 [3] [µM]
"CC(C)(c1cc(Cl)cc(NC(=O)c2cc3cc(C(C)(C)S(C)(=O)=O)ccc3s2)c1)c1cc(OCC(F)(F)F)cc(OC(F)(F)F)c1 [Example 12, N-(3-chloro-5-(2-(3-(2,2,2-trifluoroethoxy)-5-(trifluoromethoxy)phenyl)propan-2-yl)phenyl)-5-(2-(methylsulfonyl)propan-2-yl)benzo[b]thiophene-2-carboxamide]",> 50,0.002,0.025
"CC(C)Oc1cc(OC(F)(F)F)cc(C(C)(C)c2cc(Br)cc(NC(=O)c3cc4cc(C(C)(C)S(C)(=O)=O)ccc4s3)c2)c1 [Example 9, N-(3-bromo-5-(2-(3-isopropoxy-5-(trifluoromethoxy)phenyl)propan-2-yl)phenyl)-5-(2-(methylsulfonyl)propan-2-yl)benzo[b]thiophene-2-carboxamide]",> 50,0.00065,0.02
"Cn1cccc1C(C)(C)c1cc(Cl)cc(NC(=O)c2cc3cc(C(C)(C)S(C)(=O)=O)ccc3s2)c1 [Example 31, N-(3-chloro-5-(2-(1-methyl-1H-pyrrol-2-yl)propan-2-yl)phenyl)-5-(2-(methylsulfonyl)propan-2-yl)benzo[b]thiophene-2-carboxamide]",> 50,0.0025,0.24
"CC(C)(c1ccc2sc(C(=O)Nc3cc(Br)nc(Oc4ccc(Cl)cc4)c3)cc2c1)S(C)(=O)=O [Example 69, N-(2-bromo-6-(4-chlorophenoxy)pyridin-4-yl)-5-(2-(methylsulfonyl)propan-2-yl)benzo[b]thiophene-2-carboxamide]",> 50,0.01,0.015
"COCCS(=O)(=O)C(C)(C)c1ccc2sc(C(=O)Nc3cc(Cl)cc(Oc4ccc(Cl)cc4)c3)cc2c1 [Example 57, N-(3-chloro-5-(4-chlorophenoxy)phenyl)-5-(2-((2-methoxyethyl)sulfonyl)propan-2-yl)benzo[b]thiophene-2-carboxamide]",> 50,0.027,0.2
"CC(C)(c1ccc(Cl)cc1)c1cc(Cl)cc(NC(=O)c2cc3cc(CS(C)(=N)=O)ccc3s2)c1 (stereo not drawn) [Example 36, N-(3-chloro-5-(2-(4-chlorophenyl)propan-2-yl)phenyl)-5-((S-methylsulfonimidoyl)methyl)benzo[b]thiophene-2-carboxamide]",42.1,0.064,0.25
"Cc1cc(Oc2cc(NC(=O)c3cc4cc(C(C)(C)S(C)(=O)=O)ccc4s3)cc(Cl)n2)cs1 [Example 114, N-(2-chloro-6-((5-methylthiophen-3-yl)oxy)pyridin-4-yl)-5-(2-(methylsulfonyl)propan-2-yl)benzo[b]thiophene-2-carboxamide]",> 50,0.063,0.13
"C=CCOc1cc(OC(F)(F)F)cc(C(C)(C)c2cc(Cl)cc(NC(=O)c3cc4cc(C(C)(C)S(C)(=O)=O)ccc4s3)c2)c1 [Example 14, N-(3-(2-(3-(allyloxy)-5-(trifluoromethoxy)phenyl)propan-2-yl)-5-chlorophenyl)-5-(2-(methylsulfonyl)propan-2-yl)benzo[b]thiophene-2-carboxamide]",> 50,0.0083,0.01
"CC(C)(c1ccc2sc(C(=O)Nc3cc(Cl)nc(OC4CC=C(Cl)CC4)c3)cc2c1)S(C)(=O)=O (stereo not drawn) [Example 101, N-(2-chloro-6-((4-chlorocyclohex-3-en-1-yl)oxy)pyridin-4-yl)-5-(2-(methylsulfonyl)propan-2-yl)benzo[b]thiophene-2-carboxamide]",> 50,0.0093,0.068
"O=C(Nc1cc(Cl)nc(Oc2ccc(Cl)cc2)c1)c1cc2cc(C3CCCCS3(=O)=O)ccc2s1 (stereo not drawn) [Example 74, N-(2-chloro-6-(4-chlorophenoxy)pyridin-4-yl)-5-(1,1-dioxidotetrahydro-2H-thiopyran-2-yl)benzo[b]thiophene-2-carboxamide]",> 50,0.12,0.61
"Cc1noc(C)c1Oc1cc(NC(=O)c2cc3cc(C(C)(C)S(C)(=O)=O)ccc3s2)cc(Cl)n1 [Example 113, N-(2-chloro-6-((3,5-dimethylisoxazol-4-yl)oxy)pyridin-4-yl)-5-(2-(methylsulfonyl)propan-2-yl)benzo[b]thiophene-2-carboxamide]",> 50,0.18,0.27
"CCN1CCC2(CCN(c3cc(NC(=O)c4cc5cc(C(C)(C)S(C)(=O)=O)ccc5s4)cc(Cl)n3)C2)C1 (stereo not drawn) [Example 107, N-(2-chloro-6-(7-ethyl-2,7-diazaspiro[4.4]nonan-2-yl)pyridin-4-yl)-5-(2-(methylsulfonyl)propan-2-yl)benzo[b]thiophene-2-carboxamide]",33.5,> 10,5.5
"CC(C)(c1ccc2sc(C(=O)Nc3cc(Cl)nc(Oc4ccc(F)cc4)c3)cc2c1)S(C)(=O)=O [Example 68, N-(2-chloro-6-(4-fluorophenoxy)pyridin-4-yl)-5-(2-(methylsulfonyl)propan-2-yl)benzo[b]thiophene-2-carboxamide]",> 50,0.011,0.03
"CC(C)(c1ccc2sc(C(=O)Nc3cc(Cl)nc(Oc4cc(Cl)cc(Cl)c4)c3)cc2c1)S(C)(=O)=O [Example 62, N-(2-chloro-6-(3,5-dichlorophenoxy)pyridin-4-yl)-5-(2-(methylsulfonyl)propan-2-yl)benzo[b]thiophene-2-carboxamide]",> 50,0.02,0.034
"CC(C)(c1ccc2sc(C(=O)Nc3cc(Cl)nc(N4CCN5CCCC5C4)c3)cc2c1)S(C)(=O)=O (stereo not drawn) [Example 104, N-(2-chloro-6-(hexahydropyrrolo[1,2-a]pyrazin-2(1H)-yl)pyridin-4-yl)-5-(2-(methylsulfonyl)propan-2-yl)benzo[b]thiophene-2-carboxamide]",8.7,1.4,1.7
